Experimental data published in patent US5504190A, “Equimolar multiple oligomer mixtures, especially oligopeptide mixtures” (priority 1994, dated 1996).
Read-outs that look alike come from different tables or passages of the source. Peptide text beside a SMILES is read from it.

Columns and labels:
[1] = molecular target: monoclonal antibody (mAb) 125-10F3; experiment: competitive ELISA, inhibition of mAb 125-10F3 binding to plate-adsorbed polypeptide SEQ ID NO:1
Excerpt: Monoclonal antibody (mAb) 125-10F3 was used in these studies, which binds specifically to a 13-residue polypeptide […](SEQ ID NO:1) Appel et al., J. Immunol., 144:976-983 (1990)!. The antigenic determinant recognized by the mAb is Pro-Tyr-Pro-Asn-Leu-Ser (SEQ ID NO:2), determined previously using individual omission analogs of the polypeptide as is seen in FIG. 2.
The peptide library was screened utilizing a competitive ELISA system that measured the inhibition in solution of the binding of the mAb to polypeptide SEQ ID NO:1 adsorbed to an assay plate by each individual element of the synthetic combinatorial library. […] Screening data for an exemplary eighteen of the 400 sets are shown in FIG. 4, with arrows at the two best binding sequences.
The concentration of the inhibiting oligopeptide sets at which 50 percent of the mAb was inhibited in its binding to the polypeptide (IC-50) was determined.

[2] = molecular target: mAb 19B10; experiment: competitive ELISA, inhibition of mAb 19B10 binding to plate-adsorbed peptide SEQ ID NO:89; settings: as the positions were defined
Excerpt: The antigenic determinant recognized by mAb 19B10 has the sequence Asp-Val-Pro-Asp-Tyr-Ala (SEQ ID NO:88). […].
Oligopeptide sets were screened in the general manner discussed previously, except that rather than using 400 mixture sets whose first two positions were defined and whose last four were equimolar mixtures for the first screen, 324 such N-acetyl C-amide sets were used based on mixtures of eighteen amino acids. Tryptophan and cysteine were not included with these mixture.

[3] = test system: Staphylococcus aureus (ATCC 29213); experiment: microbe, parasite or virus in culture
Experimental: (§1) Escherichia coli (ATCC 25922) was used as Gram-negative (-) and Staphylococcus aureus (ATCC 29213) as Gram-positive (+) bacteria. Bacteria were grown overnight (about 18 hours) at 37° C. in Mueller-Hinton (MH) broth. This culture was reinoculated and incubated at 37° C. to reach the exponential phase of bacteria growth; i.e., a final bacterial suspension containing about 10^5 to 5×10^5 colony-forming units (CFU)/ml. The concentration of cells was established by plating 100 μl of different dilutions of the culture solution (e.g., 10^-2, 10^-3 and 10^-4) onto solid agar plates. Following an overnight (about 18 hours) incubation at 37° C., the CFU thus formed were counted on each agar plate.
(§2) 96-Well tissue culture plates were utilized, with eight wells per plate containing only medium as control blanks, whereas eight other wells contained medium plus cells as a positive growth control. These controls were used to detect possible medium contamination and to provide a measure of uninhibited growth of the microorganisms.
(§3) For initial screening studies, oligopeptide sets were added to the bacterial suspension to reach a final concentration of 1 mg/ml.
(§4) The plates were incubated overnight (about 18 hours) at 37° C., and the optical density (OD) determined at 620 nm after different times of incubation.

[4] = test system: human red blood cells; format: cell-based
Experimental: Assays were carried out in 96-well culture tissue plates. Four wells per plate contained 125 μl of a non-peptide positive control of the surfactant Triton X-100 (poly)oxyethanol (9) octyl phenyl ether; 1 percent in deionized water!, and four wells per plate contained 115 μl of a control blank of phosphate-buffered saline (PBS). The hemolytic peptide melittin was used as comparative control. The controls served to detect possible contamination and to calculate the percent hemolysis of each peptide.
Human red blood cells (RBC's) were washed with PBS and centrifuged to separate them from the serum. The cells are then resuspended in PBS to a final suspension of 0.5 percent RBC. This suspension (125 μl) was added to the peptide mixture and control solutions. The plates were incubated at 37° C. for one hour and centrifuged at 2800 rpm for five minutes. The release of hemoglobin resulting from the cell lysis was determined by measuring the OD at 414 nm of 100 μl of the supernatant.

[5] = test system: Vero (monkey kidney) cell monolayers; format: cell-based
[6] = test system: Herpes Simplex Virus Type 1 (HSV-1); experiment: HSV-1 plaque assay on Vero cell monolayers; format: cell-based; settings: Table 10
Experimental: The screenings utilized a plaque assay in which 24-well plates containing Vero (monkey kidney) cell monolayers were overlaid with 400 μg/ml of each peptide or mixture in M-199V (medium and newborn calf serum). The plates were incubated for two hours at 37° C.
Each well was thereafter aspirated and immediately overlaid with 400 μg of peptide or mixture in DMEM-O (Dulbeco's modified Eagle's medium and pooled human gamma globulin) and incubated for 48 hours. […] At 48 hours, the plate wells were aspirated, rinsed, fixed and stained. Plaque formation, if present, was tallied and recorded.
The PFU's per well of six controls were averaged and represent 100 percent plaque formation at approximately 50 PFU's per well. The average PFU's per screened peptide or mixture (duplicate wells) quantitatively represented percent viral inhibition of plaque formation or infection. For example, a count of 10 PFU's of a screened peptide compared to the control of 50 PFU's would represent 20 percent plaque formation and 80 percent plaque inhibition.

[7] = test system: Escherichia coli (ATCC 25922); experiment: antimicrobial assay, growth inhibition of E. coli (OD 620 nm); format: cell-based; settings: Tables 1 and 2
Experimental: as §1, §2, §3, §4

[8] = test system: Candida albicans ATCC 10231; experiment: antifungal assay, growth inhibition of C. albicans (OD 620 nm); format: cell-based; settings: Table 9
Experimental: Antifungal studies were carried out Candida albicans ATCC 10231 as the target microbe. The yeast culture was spread onto YM agar plates and incubated at 30° C. for 48 hours. Three colonies of this culture (about 1 mm in diameter each) were then inoculated in 5 ml of 1 X PBS solution. The suspension was vortexed and diluted 10-fold in YM broth, for an approximate final concentration of 10^5 to 5×10^5 CFU (colony forming units)/ml.
Actual concentrations of yeast cultures were determined by plating 100 μl of different solutions of the culture solution (10^-3, 10^-4 and 10^-5) onto solid YM agar plates. After 48 hours of incubation at 30° C., CFU formed were counted from each plate.
The assays were carried out in 96-well tissue culture plates. Eight wells containing only medium of YM broth served as negative controls, whereas eight wells containing medium and yeast culture served as positive controls. These controls were used to detect possible medium contamination and to provide a measure of uninhibited growth of the yeast.
For screening studies, oligopeptide mixtures were added to the yeast suspension in duplicates to reach a final concentration of 1.5 mg/ml. […] The plates were incubated over a period of 48 hours at 30° C., and the optical density (OD) at 24 and 48 hours was determined at 620 nm.

[9] = later study completing the Ac-Tyr-Pro series ("in this study"), read-out: IC-50
[10] = 7-mer studies, Tables 5 and 6 and parent 6-mer

Row | Molecule | IC-50 ([3]; Tables 3 and 4) | MIC ([3]; Tables 3 and 4) | HD-50 [4] | Toxic Concentration [5] | concentration for 100 Percent Inhibition [6] | further results
1 | Ac-PYPNLS-NH2 [Ac-Pro-Tyr-Pro-Asn-Leu-Ser-NH2] |  |  |  |  |  | IC50 ([1]; iterative screening and control study of Example 2, read-out: IC-50 (concentration at which 50 percent of the mAb was inhibited in its binding to the polypeptide)): 10 nM; IC50 [1, 9]: 40 nM
2 | Ac-YPNLSN-NH2 [Ac-Tyr-Pro-Asn-Leu-Ser-Asn-NH2] |  |  |  |  |  | IC50 [1, 9]: 150 nM; IC-50 value difference between the mixture (positions 1-5 of SEQ ID NO:15, position 6 mixture) and the single peptide ([1]; mixture inhibited better): about a factor of four
3 | Ac-DVPDYA-NH2 [Ac-Asp-Val-Pro-Asp-Tyr-Ala-NH2] |  |  |  |  |  | IC50 [2]: 30 nM
4 | Ac-RRWWCH-NH2 [RRWWCH] | 6.2 µg/mL | 5.5 to 11 µg/mL | 128 µg/mL |  |  | 
5 | Ac-RRWWCM-NH2 [RRWWCM] |  |  |  | 10 µg/mL | 1 µg/mL | 
6 | Ac-YRRWWRF-NH2 [YRRWWRF] |  |  | 219 µg/mL |  |  | IC-50 [3, 10]: 4.5 µg/mL; MIC [3, 10]: 4 to 8 µg/mL
7 | Ac-RRWWCG-NH2 [RRWWCG] |  |  |  | 10 µg/mL | 1 µg/mL | 
8 | Ac-RRWWRFW-NH2 [RRWWRFW] |  |  | 59 µg/mL |  |  | IC-50 [3, 10]: 2.5 µg/mL; MIC [3, 10]: 4 to 8 µg/mL
9 | Ac-FRWLLF-NH2 [FRWLLF] | 11 µg/mL | 9 to 18 µg/mL | 34 µg/mL |  |  | 
10 | Ac-RRWWRFF-NH2 [RRWWRFF] |  |  | 106 µg/mL |  |  | IC-50 [3, 10]: 4.7 µg/mL; MIC [3, 10]: 4 to 8 µg/mL
11 | Ac-FRWLLK-NH2 [FRWLLK] |  |  | 356 µg/mL |  |  | IC-50 [7]: 5 µg/mL; MIC [7]: 5 to 10 µg/mL
12 | Ac-RRWWCK-NH2 [RRWWCK] | 5.5 µg/mL | 4.8 to 9.6 µg/mL | 249 µg/mL | 10 µg/mL | 5 µg/mL | 
13 | Ac-IRRWWRF-NH2 [IRRWWRF] |  |  | 142 µg/mL |  |  | IC-50 [3, 10]: 4.7 µg/mL; MIC [3, 10]: 4 to 8 µg/mL
14 | Ac-RRWWRR-NH2 [RRWWRR] |  |  |  | 25 µg/mL | 1 µg/mL | IC-50 [8]: 27.6 µg/mL; MIC [8]: 30 to 42 µg/mL
15 | Ac-WRRWWRF-NH2 [WRRWWRF] |  |  | 158 µg/mL |  |  | IC-50 [3, 10]: 5.4 µg/mL; MIC [3, 10]: 4 to 8 µg/mL
16 | Ac-RRWWCF-NH2 [RRWWCF] |  |  |  | 10 µg/mL | 5 µg/mL | 
17 | Ac-FRWLLR-NH2 [FRWLLR] | 13 µg/mL | 24 to 48 µg/mL | 171 µg/mL |  |  | IC-50 [7]: 4 µg/mL; MIC [7]: 5 to 10 µg/mL
18 | Ac-RRWWCA-NH2 [RRWWCA] | 8.4 µg/mL | 9 to 18 µg/mL |  | 25 µg/mL | 1 µg/mL | 
19 | Ac-RRWWCY-NH2 [RRWWCY] | 5.4 µg/mL | 4.7 to 9.5 µg/mL | 50 µg/mL |  |  | 
20 | Ac-RRWWCW-NH2 [RRWWCW] | 4.1 µg/mL | 4.5 to 9.0 µg/mL | 11 µg/mL |  |  | 
21 | Ac-RRWWRW-NH2 [RRWWRW] |  |  |  | 25 µg/mL | 1 µg/mL | 
22 | CC(=O)N[C@@H](CCCNC(=N)N)C(=O)N[C@@H](CCCNC(=N)N)C(=O)N[C@@H](Cc1c[nH]c2ccccc12)C(=O)N[C@@H](Cc1c[nH]c2ccccc12)C(=O)N[C@@H](CS)C(=O)N[C@@H](CS)C(N)=O [RRWWCC] (Ac-RRWWCC-NH2) |  |  |  | 10 µg/mL | 1 µg/mL | 
